For series [1], the system named is P-388 leukemia. Briefly: in-vivo antitumor activity against transplanted mouse P-388 leukemia (NCI test). The note with it: for MST (% T/C): >125 = significant antitumor activity; for in-vivo antitumor activity: P-388 leukemia in mice. How it is done:
(§1) Anti-tumor activity was determined by the standard National Cancer Institute test which was published in Cancer Chemothr. Rep. 3:1-103, 1972.
(§2) In the test, 10^6 cells (a lethal dose) per mouse of P-388 leukemia are administered interperitoneally on day 0. The test compounds are serially diluted (1:2, 1:4, 1:8, etc.) and each dilution is administered interperitoneally to the mice on days 1, 4 and 7.
(§3) ^1 Tumor inoculum: 10^6 ascites cells, ip
(§4) ^2 Host: CDF1 male mice
(§5) ^3 Treatment schedule: For AT 2433 A1 and B1, ip. days 1, 4
(§6) ^4 Tox: Toxic, i.e., <4/6 mice alive on day 5
(§7) ^5 MST: Median survived time in days
(§8) ^6 % T/C: (MSTTreated/MST-Control) × 100
(§9) ^7 Criteria: If % T/C >125, the test compound is considered to exhibi
(§10) significant antitumor activity at that dose.

The test system of series [2] is gram-positive bacteria. Briefly: antibacterial activity against gram-positive bacteria. It is filed as cell-based. How it is done:
(§11) Antibiotics AT 2433 A1, AT 2433 A2, and AT 2433 B1 and AT 2433 B2 were tested in-vitro to determine anti-bacterial activity against a variety of gram-positive and gram-negative organisms
(§12) The in-vitro antibacterial activity tests were performed via conventional agar dilution methods in Muell-Hintom agar (MHA) at pH 7.4.

Series [3] relates to Sarcina lutea (ATCC 9341). The experiment in a line: in-vitro antibacterial activity, agar dilution (MIC). It is filed as cell-based. The following applies: Micrococcus luteus, ATCC9341, MHA, 48 hrs, pH 7.4, read-out: Minimum Inhibitory Concentration (MIC). Here is the method: as §11, §12
In general terms: In agar dilution the substance is mixed into plates at graded concentrations.

Series [4] has as its system E. Coli SS 1431. Described as above. The format is cell-based. The note with it: Escherichia coli, MHA, 48 hrs, pH 7.4. How it is done:
as §11, §12

The test system of series [5] is gram-negative bacteria. Briefly: antibacterial activity against gram-negative bacteria. The format is cell-based. Here is the method: as §11, §12
The nature of series [6]: in-vivo antitumor activity against transplanted mouse P-388 leukemia (NCI test). The note with it: mouse, in vivo; every 3rd day for 3 injections, ip; read-out: maximum tolerated dose (no day 5 or earlier deaths due to toxicity). Here is the method:
as §1, §2, §3, §4, §5, §6, §7, §8, §9, §10

Where [7] appears, read: 0.5 mg/kg/inj, ip, days 1, 4 and 7.
Setting [8] is: 0.5 mg/kg/inj, ip, days 1, 4 and 7, CDF1 male mice.
Setting [9] is: 1 mg/kg/inj, ip, days 1, 4 and 7.
Setting [10] is: 1 mg/kg/inj, ip, days 1, 4 and 7, CDF1 male mice.
Where [11] appears, read: 2 mg/kg/inj, ip, days 1, 4 and 7.
Where [12] appears, read: 2 mg/kg/inj, ip, days 1, 4 and 7, CDF1 male mice.
Where [13] appears, read: 4 mg/kg/inj, ip, days 1, 4 and 7.
Setting [14] is: 4 mg/kg/inj, ip, days 1, 4 and 7, CDF1 male mice.
The mark [15] stands for this setting: 8 mg/kg/inj, ip, days 1, 4 and 7.
The mark [16] stands for this setting: 8 mg/kg/inj, ip, days 1, 4 and 7, CDF1 male mice.
[17] abbreviates: 16 mg/kg/inj, ip, days 1, 4 and 7.
Setting [18] is: 16 mg/kg/inj, ip, days 1, 4 and 7, CDF1 male mice.

In brackets after ≈: the same amount, converted by molar mass.

Take `CNC1COC(OCC2OC(n3c4ccccc4c4c5c(c6c7ccccc7[nH]c6c43)C(=O)N(C)C5=O)C(O)C(O)C2OC)CC1O` (stereo not drawn) [AT 2433 B1]: the “MST (% T/C)” value came out at 111% in series [1] (setting [7]); 117% in series [1] (setting [9]); 122% in series [1] (setting [11]); 133% in series [1] (setting [13]); 133% in series [1] (setting [15]); 144% in series [1] (setting [17]). Besides, the “MST (median survived time)” value in series [1] (setting [8]) worked out at 10.0 days; in series [1] (setting [10]), 10.5 days; in series [1] (setting [12]), 11.0 days; in series [1] (setting [14]) it was 12.0 days; in series [1] (setting [16]), 12.0 days; in series [1] (setting [18]) it was 13.0 days. The “Avg. wt. change, gm on day 5” value in series [1] (setting [7]) is reported as 3.0 gm; in series [1] (setting [9]), 3.0 gm; in series [1] (setting [11]) it was 0.0 gm; in series [1] (setting [13]), -0.6 gm; in series [1] (setting [15]), -0.3 gm; in series [1] (setting [17]), -0.7 gm. Also, the “Survivors day 5” value in series [1] (setting [7]) is reported as 5/5; in series [1] (setting [9]), 5/5; in series [1] (setting [11]) it was 6/6; in series [1] (setting [13]), 6/6; in series [1] (setting [15]) it was 6/6; in series [1] (setting [17]), 6/6. Besides, in series [1], the “in-vivo antitumor activity” value was “exhibited in-vivo antitumor activity”. For the same molecule, in series [1] (highest dose tested, 16 mg/kg), the “tumor growth inhibition” value is “inhibitory to tumor growth but less effective than AT 2433 A1”. For the same molecule, the “antibacterial activity against gram-positive bacteria” value in series [2] was “active”. The figures for the MIC in series [3] and in series [4] were 0.25 µg/mL (≈ 0.388 µM) and 16 µg/mL (≈ 24.8 µM), respectively. In addition, in series [5], the “antibacterial activity against gram-negative bacteria” value is on record as “exhibit antibacterial activity”.
Turning to `CNC1COC(OCC2OC(n3c4c(Cl)cccc4c4c5c(c6c7ccccc7[nH]c6c43)C(=O)N(C)C5=O)C(O)C(O)C2OC)CC1O` (stereo not drawn) [AT 2433 A1], the “MST (% T/C)” value came out at 150% in series [1] (setting [7]); 150% in series [1] (setting [9]); 172% in series [1] (setting [11]); 156% in series [1] (setting [13]); 194% in series [1] (setting [15]). Moreover, the “MST (median survived time)” value in series [1] (setting [8]) was determined as 13.5 days; in series [1] (setting [10]) it was 13.5 days; in series [1] (setting [12]), 15.5 days; in series [1] (setting [14]), 14.0 days; in series [1] (setting [16]), 17.5 days. Moreover, the “Avg. wt. change, gm on day 5” value in series [1] (setting [7]) is reported as -0.2 gm; in series [1] (setting [9]) it was -0.7 gm; in series [1] (setting [11]), -2.2 gm; in series [1] (setting [13]) it was -2.3 gm; in series [1] (setting [15]), -4.1 gm; in series [1] (setting [17]), -3.2 gm. The “Survivors day 5” value in series [1] (setting [7]) is given as 6/6; in series [1] (setting [9]), 6/6; in series [1] (setting [11]) it was 6/6; in series [1] (setting [13]), 5/6; in series [1] (setting [15]) it was 4/6; in series [1] (setting [17]) it was 2/6. Also, the “increase in life span over controls” value in series [1] (2 mg/kg given every 3rd day for 3 injections) worked out at 72%. Further, the “MST (% T/C) (toxicity flag)” value in series [1] (setting [18]) was “Tox (Toxic, i.e., <4/6 mice alive on day 5)”. For the same molecule, in series [1] (setting [18]), the “MST (toxicity flag)” value is on record as “Tox (Toxic, i.e., <4/6 mice alive on day 5)”. Further, the “in-vivo antitumor activity” value in series [1] is recorded as “exhibited in-vivo antitumor activity”. Besides, the MTD in series [6] turned out to be 2 mg/kg. The “antibacterial activity against gram-positive bacteria” value in series [2] was “active”. Besides, the MIC in series [3] amounted to 0.25 µg/mL (≈ 0.368 µM).
In the case of `COC1C(COC2CC(O)C(N)CO2)OC(n2c3c(Cl)cccc3c3c4c(c5c6ccccc6[nH]c5c32)C(=O)N(C)C4=O)C(O)C1O` (stereo not drawn) [AT 2433 A2], in series [2], the “antibacterial activity against gram-positive bacteria” value is on record as “active”. In series [3], the MIC came to 1 µg/mL (≈ 1.5 µM).
Regarding `COC1C(COC2CC(O)C(N)CO2)OC(n2c3ccccc3c3c4c(c5c6ccccc6[nH]c5c32)C(=O)N(C)C4=O)C(O)C1O` (stereo not drawn) [AT 2433 B2], in series [2], the “antibacterial activity against gram-positive bacteria” value is listed as “active”. Also, in series [3], the MIC turned out to be 4 µg/mL (≈ 6.34 µM).

The values above are taken from patent publication US4743594A, “Antibiotic, antitumor compounds and their use” (priority 1984, dated 1988).
